Laboratory results taken from the supplement of paper PMC3937590.

Assays:
Assay in all cases: -log10 GI50 (growth inhibition 50%) (-log10(M)); higher = more potent growth inhibition
MDAMB453 = system: MDAMB453
Method in brief: (§1)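 Breast cancer cell lines were exposed to each compound for 72 hours at nine doses in 1:5 serial dilution, in triplicate, with a luminescence read-out against a time-zero plate. A Gompertz curve was fitted to the dose-response data by nonlinear least squares. The value is minus log10 of GI50, the molar concentration giving the set level of growth inhibition. Values equal to the top dose carry a < qualifier.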

BT20 = system: BT20
Method in brief: as §1

ZR75B = system: ZR75B
Method in brief: as §1

BT549 = system: BT549
Method in brief: as §1

T47D_KBluc = system: T47D_KBluc
Method in brief: as §1

HCC1569 = system: HCC1569
Method in brief: as §1

HCC202 = system: HCC202
Method in brief: as §1

HCC1954 = system: HCC1954
Method in brief: as §1

184A1 = system: 184A1
Method in brief: as §1

MCF12A = system: MCF12A
Method in brief: as §1

MCF7 = system: MCF7
Method in brief: as §1

184B5 = system: 184B5
Method in brief: as §1

SUM1315MO2 = system: SUM1315MO2
Method in brief: as §1

HCC1395 = system: HCC1395
Method in brief: as §1

MDAMB361 = system: MDAMB361
Method in brief: as §1

SUM159PT = system: SUM159PT
Method in brief: as §1

SUM225CWN = system: SUM225CWN
Method in brief: as §1

AU565 = system: AU565
Method in brief: as §1

HCC70 = system: HCC70
Method in brief: as §1

MCF10A = system: MCF10A
Method in brief: as §1

MDAMB231 = system: MDAMB231
Method in brief: as §1

MDAMB157 = system: MDAMB157
Method in brief: as §1

SKBR3 = system: SKBR3
Method in brief: as §1

CAMA1 = system: CAMA1
Method in brief: as §1

HBL100 = system: HBL100
Method in brief: as §1

HCC1937 = system: HCC1937
Method in brief: as §1

HCC1428 = system: HCC1428
Method in brief: as §1

MX1 = system: MX1
Method in brief: as §1

T47D = system: T47D
Method in brief: as §1

BT474 = system: BT474
Method in brief: as §1

ZR751 = system: ZR751
Method in brief: as §1

HCC1419 = system: HCC1419
Method in brief: as §1

SUM229PE = system: SUM229PE
Method in brief: as §1

600MPE = system: 600MPE
Method in brief: as §1

HS578T = system: HS578T
Method in brief: as §1

MCF10F = system: MCF10F
Method in brief: as §1

HCC38 = system: HCC38
Method in brief: as §1

HCC1187 = system: HCC1187
Method in brief: as §1

HCC1806 = system: HCC1806
Method in brief: as §1

HCC2185 = system: HCC2185
Method in brief: as §1

MDAMB175VII = system: MDAMB175VII
Method in brief: as §1

BT483 = system: BT483
Method in brief: as §1

MDAMB134VI = system: MDAMB134VI
Method in brief: as §1

MDAMB415 = system: MDAMB415
Method in brief: as §1

HCC3153 = system: HCC3153
Method in brief: as §1

SUM149PT = system: SUM149PT
Method in brief: as §1

HCC1143 = system: HCC1143
Method in brief: as §1

SUM185PE = system: SUM185PE
Method in brief: as §1

SUM52PE = system: SUM52PE
Method in brief: as §1

MDAMB468 = system: MDAMB468
Method in brief: as §1

UACC812 = system: UACC812
Method in brief: as §1

LY2 = system: LY2
Method in brief: as §1

UACC893 = system: UACC893
Method in brief: as §1

S1 = system: S1
Method in brief: as §1

MDAMB436 = system: MDAMB436
Method in brief: as §1

Compound: CC(C)[C@H](CO)Nc1nc(Nc2cccc(Cl)c2)c2ncn(C(C)C)c2n1 [Purvalanol A]
- -log10 GI50 (MDAMB453): < 3.78
- -log10 GI50 (BT20): 4.57
- -log10 GI50 (ZR75B): < 3.78
- -log10 GI50 (BT549): < 3.78
- -log10 GI50 (T47D_KBluc): < 3.78
- -log10 GI50 (HCC1569): 4.7
- -log10 GI50 (HCC202): 4.02
- -log10 GI50 (HCC1954): 4.11
- -log10 GI50 (184A1): 4.62
- -log10 GI50 (MCF12A): 4.15
- -log10 GI50 (MCF7): 4.29
- -log10 GI50 (184B5): 5.52
- -log10 GI50 (SUM1315MO2): 5.09
- -log10 GI50 (HCC1395): < 3.78
- -log10 GI50 (MDAMB361): < 3.78
- -log10 GI50 (SUM159PT): < 3.78
- -log10 GI50 (SUM225CWN): 4.36
- -log10 GI50 (AU565): 4.39
- -log10 GI50 (HCC70): < 3.78
- -log10 GI50 (MCF10A): 4.29
- -log10 GI50 (MDAMB231): < 3.78
- -log10 GI50 (MDAMB157): < 3.78
- -log10 GI50 (SKBR3): 4.19
- -log10 GI50 (CAMA1): 3.87
- -log10 GI50 (HBL100): 4.6
- -log10 GI50 (HCC1937): 4.37
- -log10 GI50 (HCC1428): 4.18
- -log10 GI50 (MX1): < 3.78
- -log10 GI50 (T47D): < 3.78
- -log10 GI50 (BT474): < 3.78
- -log10 GI50 (ZR751): < 3.78
- -log10 GI50 (HCC1419): < 3.78
- -log10 GI50 (SUM229PE): 4.91
- -log10 GI50 (600MPE): 4.15
- -log10 GI50 (HS578T): < 3.78
- -log10 GI50 (MCF10F): 4.74
- -log10 GI50 (HCC38): < 3.78
- -log10 GI50 (HCC1187): 4.63
- -log10 GI50 (HCC1806): 4.14
- -log10 GI50 (HCC2185): 4.43
- -log10 GI50 (MDAMB175VII): 4.12
- -log10 GI50 (BT483): 4.4
- -log10 GI50 (MDAMB134VI): 4.26
- -log10 GI50 (MDAMB415): < 3.78
- -log10 GI50 (HCC3153): 3.83
- -log10 GI50 (SUM149PT): 4.88
- -log10 GI50 (HCC1143): < 3.78
- -log10 GI50 (SUM185PE): 4.69
- -log10 GI50 (SUM52PE): 4.79

Compound: CCC1=C[C@@H]2CN(C1)Cc1c([nH]c3ccccc13)[C@@](C(=O)OC)(c1cc3c(cc1OC)N(C)[C@H]1[C@@](O)(C(=O)OC)[C@H](OC(C)=O)[C@]4(CC)C=CCN5CC[C@]31[C@@H]54)C2 [Vinorelbine]
- -log10 GI50 (MDAMB453): 8.8
- -log10 GI50 (ZR75B): 8.05
- -log10 GI50 (BT549): 8.02
- -log10 GI50 (HCC1569): 6.42
- -log10 GI50 (HCC202): 7.89
- -log10 GI50 (HCC1954): 6.24
- -log10 GI50 (MDAMB468): 8.01
- -log10 GI50 (UACC812): 7.13
- -log10 GI50 (MCF12A): 7.91
- -log10 GI50 (MCF7): 7.85
- -log10 GI50 (SUM1315MO2): 8.65
- -log10 GI50 (HCC1395): 8.45
- -log10 GI50 (MDAMB361): 9
- -log10 GI50 (SUM159PT): 7.91
- -log10 GI50 (LY2): 7.88
- -log10 GI50 (AU565): 8.24
- -log10 GI50 (UACC893): 7.96
- -log10 GI50 (HCC70): 7.66
- -log10 GI50 (MCF10A): 7.43
- -log10 GI50 (MDAMB231): 8.39
- -log10 GI50 (MDAMB157): 7.89
- -log10 GI50 (SKBR3): 7.83
- -log10 GI50 (CAMA1): 7.88
- -log10 GI50 (HBL100): 8.02
- -log10 GI50 (S1): 8.34
- -log10 GI50 (HCC1937): 6.65
- -log10 GI50 (HCC1428): 5.66
- -log10 GI50 (T47D): 5.34
- -log10 GI50 (BT474): 7.32
- -log10 GI50 (ZR751): 7.37
- -log10 GI50 (HCC1419): 6.45
- -log10 GI50 (SUM229PE): 8.68
- -log10 GI50 (600MPE): 5.97
- -log10 GI50 (HS578T): 7.99
- -log10 GI50 (MCF10F): 7.75
- -log10 GI50 (HCC38): 7.94
- -log10 GI50 (HCC1187): 7.64
- -log10 GI50 (MDAMB436): 7.57
- -log10 GI50 (HCC1806): 7.97
- -log10 GI50 (HCC2185): 5.23
- -log10 GI50 (MDAMB175VII): 7.41
- -log10 GI50 (BT483): 8.14
- -log10 GI50 (MDAMB134VI): 7.95
- -log10 GI50 (MDAMB415): 7.73
- -log10 GI50 (HCC3153): 7.29
- -log10 GI50 (SUM149PT): 7.85
- -log10 GI50 (HCC1143): 6.49
- -log10 GI50 (SUM185PE): 8.08
- -log10 GI50 (SUM52PE): 7.97
